# Measurements as given in a melting point compilation (Tetko et al.; mined from patent text by program, amines drawn as free bases though some values may be those of a salt).
row,melting point [°C],Structure (SMILES)
1,59 to 64,CCCc1nn(CC)c(CO)c1Cc1ccc(-c2ccccc2NS(=O)(=O)C(F)(F)F)cc1
2,156 to 158,O=C1CCCc2nc3cc(Cl)ccc3c(NCc3ccc(F)cc3)c21
3,39 to 40,Cc1cc(I)sc1COCP(=O)(OC(C)C)OC(C)C
4,108 to 109,Oc1ccc(C2(O)CCC3CN(Cc4ccccc4)CCC3C2)cc1 (stereo unspecified)
5,> 250,CC(=O)Nc1nc2ccc(S(=O)(=O)n3c(CCCC(=O)O)cc4cc(C(F)(F)F)ccc43)cc2s1
6,208 to 209,CCCCCCCCCC(=O)Nc1cc(NC(=O)CCCCCCCCC)cc(C(=O)O)c1
7,171,C=CC(=O)NC1=CC(O)(C(C)=O)C(C(=O)O)C=C1 (stereo unspecified)
8,151 to 152,COc1ccc(-n2c(-c3ccc(OCCCl)cc3)nc3c(OC)cccc3c2=O)cc1
9,125 to 134,CNC(=O)N(O)C(C)c1ccc(F)cc1F (stereo unspecified)
10,300 to 301,CC(C)(C)c1ccc(C(=O)Nc2cn3cc(-c4ncc[nH]4)ccc3n2)cc1
11,168,CNC(=O)C(C)CCn1c(COc2ccc(Cl)cc2)nc2c(C)cccc21 (stereo unspecified)
12,54 to 55,COCOCc1cccc(-c2ccc(C(=O)OC)cc2)c1
13,231 to 233,Cc1nc(-n2ccc(OCc3ccc(F)cc3)cc2=O)sc1C(=O)NCc1cccnc1
14,112 to 113,COc1ccc(C=O)c(Cl)c1Cl
15,217 to 219,Cc1ccc(-c2c3ccccc3nc3ccc(N(S(C)(=O)=O)S(C)(=O)=O)cc23)cc1
16,176 to 177,Cc1ccccc1-c1ccc(C(=O)N2Cc3ccc(C(=O)NCc4cccnc4)n3Cc3ccccc32)cc1
17,243 to 245,NS(=O)(=O)c1ccc(C(=O)NCCc2ccccc2)cc1
18,104 to 106,C=CCN/C(=C1/Sc2ccccc2C1=O)c1ccccc1
19,82.5 to 84,COC(=O)C(=O)c1cc(C(C)(C)C)c(O)c(C(C)(C)C)c1
20,78,CCCN(CCCc1csc2ccc(F)cc12)C1COc2cccc(OC)c2C1 (stereo unspecified)
21,200 to 202,CCC1(NC(=O)c2cc(OC)ccn2)CCCCn2c1nc(-c1ccncn1)cc2=O (racemic)
22,266 to 270,O=C(O)c1ccccc1Nc1ccc([N+](=O)[O-])cc1[N+](=O)[O-]
23,> 300,O=C(O)c1ccc(-c2cc(-c3ccc(Cl)cc3)no2)cc1

row,melting point [°C],Structure (SMILES)
1,176 to 177,O=C1N[C@H](Cc2ccc(C(F)(F)F)cc2)[C@H](c2ccc(Cl)nc2)O1 (racemic)
2,127 to 128,COc1cc2c(cc1[N+](=O)[O-])CCN(CCCCl)C(=O)C2
3,71 to 75,COC(=O)CC(O)CC(O)CCc1c(-c2ccc(F)cc2)c(-c2ccccc2)c(C(=O)Nc2ccc(C(=O)OC)cn2)n1C(C)C (stereo unspecified)
4,130 to 132,CC(C)(C)OC(=O)CN1C(=O)c2ccccc2S1(=O)=O
5,162 to 164,CCOc1nc(=O)n([C@H]2CS[C@@H](CO)O2)cc1F (relative stereo)
6,137 to 142,NS(=O)(=O)c1nc(Cl)cs1
7,219,O=c1c2ccccc2ccn2ccnc12
8,143 to 145,Cc1nc(Cl)c(-c2c(F)cccc2F)n1-c1ccc(Cl)cc1
9,224,COc1cc(C(=O)Nc2cc(Oc3ccc4nc(NC(=O)C5CC5)cn4n3)ccc2C)n(C)n1
10,247 to 248,COc1ccc(Cl)cc1-n1c(N)nnc1-c1ccc(C(F)(F)F)cc1
11,102 to 104,N#CSc1ccc(N)c(C(=O)c2ccccn2)c1
12,99 to 101,CCOC(=O)C1=C(C(=O)OCC)c2c(OC)ccc(Br)c2C1
13,89 to 91,O=C(Cc1ccccc1Nc1c(Cl)cccc1Cl)OCCl
14,167 to 169,COC(=O)c1nn(-c2ccccc2)c2sc(CN3CCOCC3)cc2c1=O
15,218 to 220,O=C(Nc1cc2ccccc2cn1)c1cncnc1NCc1ccncc1
16,235 to 237,C=CCc1c2c(cc3c(=O)cc(C(=O)O)oc13)CCCC2
17,118 to 121,COC(=O)c1cc(C(C)=O)c(C(F)(F)F)cc1N
18,93 to 95,Cc1cncc(C)c1CO
19,297 to 299,COc1cc(Nc2nc3c(s2)CCCC3c2ccccc2)ccc1C(=O)NN (stereo unspecified)
20,279 to 281,COc1cc(OC)c2c(=O)[nH]c(-c3ccc(OC)c(-c4ccc(S(C)(=O)=O)cc4)n3)nc2c1
21,199 to 201,CCCc1c(OCC(O)COc2ccc3c(=O)cc(C(=O)O)oc3c2CCC)ccc(C(C)=O)c1O (stereo unspecified)
22,151 to 153,O=C1Cc2ccccc2C=Cc2c(Cl)cccc21
23,87 to 89,CCCCOC1OC(CO)C(O)C(O)C1(O)N(CC)C(=O)N(CCCl)N=O (stereo unspecified)

row,melting point [°C],Structure (SMILES)
1,96 to 98,COCCNc1c([N+](=O)[O-])cc(C(F)(F)F)c2sc(=O)sc12
2,82 to 90,O=C(O)C1CC(Cl)=C(c2ccccc2)CC1C(=O)O (stereo unspecified)
3,188 to 189,Cc1cccc(-c2nc3cccnn3c2-c2ccnc(N)c2)c1
4,> 250,Cc1ccc(C)n1C1=CC2=C(CC1)CCc1[nH]c(=O)c(=O)n(O)c12
5,312 to 315,O=c1[nH]c(Nc2ccccc2)nc2c1ncn2CC(O)CO (stereo unspecified)
6,152 to 154,CC1CCN(c2c(C#N)c3c(c4c2CCc2ccccc2-4)-c2ccccc2C3)CC1
7,157 to 162,O=C(Nc1ccc(-n2nc(C(F)(F)F)cc2C2CC2)nc1)c1c(F)cccc1F
8,129 to 131,O=C1N(CC2CCOCC2)c2ccccc2C12COc1cc3c(cc12)OCCO3 (stereo unspecified)
9,158 to 163,COc1ccc(F)cc1N1CCN(CCCN2Cc3cc(Cl)c(S(N)(=O)=O)cc3C2=O)CC1
10,98,c1ccc2cc(OCCCNC3CCCCC3)ccc2c1
11,102 to 104,CCOC(=O)c1cnn(-c2cccc(S(=O)(=O)N(C)C)n2)c1S(N)(=O)=O
12,352 to 355,O=C(O)c1ccc(-c2nc3ccc([N+](=O)[O-])cc3s2)cc1
13,124 to 126,CC(=O)OCC(=O)C1(OC(C)=O)C(C)CC2C3CC(C)C4=CC(=O)C=CC4(C)C3C(O)CC21C (stereo unspecified)
14,194 to 195,CSc1nc(=O)n(Cc2ccccc2)c2ncn(COCc3ccccc3)c12
15,85,Cc1cc(C)cc(NC(=O)Cc2ccc(OC(C)(C)C(=O)O)cc2)c1
16,206,Oc1cncc2sccc12
17,46 to 48,CC(C)CCCC(C)NC(=O)Oc1ccc(Oc2ccc(Cl)cc2)cc1 (stereo unspecified)
18,> 300,CCCn1c(=O)c2c(NC)n[nH]c2n(Cc2cccs2)c1=O
19,167 to 170,CN(C)c1ccccc1CSc1nc2ccccc2[nH]1
20,202,CN1CCN(C2=Nc3cc(C(F)(F)F)ccc3Nc3cscc32)CC1
21,72,CCCCCC(=O)N(Cc1ccccc1)c1nc(C)ns1

row,Structure (SMILES),melting point [°C]
1,O=C1c2c(Cl)cccc2-n2cnc(-c3cccs3)c2[C@@H]2CCCN12,226 to 227
2,OC(CN1CC1)c1ccccc1 (stereo unspecified),74 to 76
3,CN(C)C1(Cc2ccccc2)CC=C(c2[nH]c3ccccc3c2CCc2ccncc2)CC1 (stereo unspecified),154 to 157
4,CC(C)(C)C12OOC1(c1cc3cc(O[Si](C)(C)C(C)(C)C)ccc3s1)OCC2(C)C (stereo unspecified),125 to 126
